Data as given in ChEMBL document CHEMBL1201862, “PubChem BioAssay data set” (2004).
The source made the active and inactive calls. Unless noted, the calls are words filed in the database; no cut-off is given here.

Columns and labels:
[1] = reduced cellular PGC1a acetyl-lysine signal – cell-based, cherry-picked samples, dose response (AID 720514); format: functional;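 further: potency may reflect raised or lowered acetylation signal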
[2] = intracellular Trypanosoma cruzi inhibitors in host cells – cell-based, plate reader, cherry-pick samples, set 3, dose response (AID 651818); format: functional;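 further: compounds incubated with infected cells for about four days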
[3] = A549 cell viability loss – cherry-picked samples, cytotoxicity control, dose response (AID 1053184); format: functional, cell-based
[4] = HEK293 cell viability loss – cherry-picked samples, cytotoxicity control, dose response (AID 1053185); format: functional, cell-based
[5] = HepG2 cell viability loss – cherry-picked samples, cytotoxicity control, dose response (AID 1053183); format: functional, cell-based
[6] = IC50 of Artemis nuclease activity blockers – biochemical, fluorescence intensity, dose response (AID 720701); format: functional;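 further: Artemis endonuclease enzyme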
[7] = Late stage assay provider results from the probe development effort to identify selective inhibitors of heat shock protein 90 (HSP90): Absorbance-based cell proliferation assay in MCF7 cells.; format: functional
[8] = Late stage assay provider results from the probe development effort to identify selective inhibitors of heat shock protein 90 (HSP90): Absorbance-based cell proliferation assay in SKBR3 cells.; format: functional; settings: SK-BR-3
[9] = cytotoxicity in CCRF-CEM lymphoblastic leukemia cells – cell-based, CellTiter-Glo ATP luminescence, 8/24/48 h, dry powder, HRAS target identification, dose response (AID 720607); format: functional
[10] = cytotoxicity in LOX IMVI melanoma cells – cell-based, CellTiter-Glo ATP luminescence, 8/24/48 h, dry powder, HRAS target identification, dose response (AID 720602); format: functional
[11] = cytotoxicity in SNB-19 cells – cell-based, CellTiter-Glo ATP luminescence, 8-48 h, dry powder, mechanism study for HRAS target identification, late-stage follow-up (AID 720611); format: functional
[12] = cytotoxicity in SNB-75 CNS cells – cell-based, CellTiter-Glo ATP luminescence, several timepoints, dry powder, mechanism study for HRAS target identification, late-stage follow-up (AID 720624); format: functional
[13] = cytotoxicity in SR immunoblastic lymphoma cells – cell-based, CellTiter-Glo ATP luminescence, 8-48 h, dry powder, mechanism study for HRAS target identification, late-stage follow-up (AID 720608); format: functional
[14] = cytotoxicity in U-251 glioma cells – cell-based, CellTiter-Glo ATP luminescence, several timepoints, dry powder, mechanism study for HRAS target identification, late-stage follow-up (AID 720616); format: functional
[15] = cytotoxicity in mouse C2C12 myoblasts – cell-based, CellTiter-Glo ATP luminescence, 8/24/48 h, dry powder, cytotoxicity control for HRAS target identification, dose response (AID 720603); format: functional
[16] = cytotoxicity in SNB-19 CNS tumor cells – cell-based, Alamar Blue fluorescence, 8/24/48 h, dry powder, HRAS target identification, dose response (AID 720600); format: functional
[17] = cytotoxicity in HeLa cervical cancer cells – cell-based, CellTiter-Glo ATP luminescence, 8-48 h, dry powder, mechanism study for HRAS target identification, late-stage follow-up (AID 720609); format: functional
[18] = time-course viability loss in HT-29 cells – cell-based, CellTiter-Glo, multiple timepoints, dry powder, HRas target identification project, dose response (AID 720598); format: functional
[19] = cytotoxicity in primary human umbilical endothelium – cell-based, CellTiter-Glo ATP luminescence, 8/24/48 h, dry powder, cytotoxicity control for HRAS target identification, dose response (AID 720604); format: functional; settings: HUVEC
[20] = biological target: fMet-Leu-Phe receptor (Homo sapiens, UniProt P21462); assay: formyl peptide receptor binders – dose response (AID 519); format: functional
Chain of fMet-Leu-Phe receptor (P21462 whole entry): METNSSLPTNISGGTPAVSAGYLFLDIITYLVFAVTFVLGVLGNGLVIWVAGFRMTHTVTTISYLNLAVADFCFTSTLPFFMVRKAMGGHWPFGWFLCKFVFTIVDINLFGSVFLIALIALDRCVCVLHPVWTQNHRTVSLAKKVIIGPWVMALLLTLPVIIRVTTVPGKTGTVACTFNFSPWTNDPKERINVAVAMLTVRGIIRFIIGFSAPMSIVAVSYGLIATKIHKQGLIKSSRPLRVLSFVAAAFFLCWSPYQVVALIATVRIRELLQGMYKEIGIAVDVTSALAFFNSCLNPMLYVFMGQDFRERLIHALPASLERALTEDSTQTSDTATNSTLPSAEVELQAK

For `Cc1nc2ccccc2c(=O)n1NC(=O)c1ccc(Cl)c([N+](=O)[O-])c1`, the AC50 [1] was 16.8 µM (active).

In the case of `COc1ccc(S(=O)(=O)Nc2ccc3c(c2)CC(=O)N([C@H](C)CO)C[C@H](C)[C@H](CN(C)Cc2ccc(C(=O)Nc4ccccc4N)cc2)O3)cc1`, the AC50 [2] was 3.19 µM (active), the AC50 [3] was 29.7 µM (active) and the AC50 [4] was 23.6 µM (active). For the same compound, the AC50 [5] was 24.6 µM (active).

For `Cc1cccc(NC(=O)c2sc3nc4c(c(-c5cccs5)c3c2N)CN(C)CC4)c1`, the IC50 [6] was > 20 µM (inactive).

In the case of `COc1ccc(N/C=C2/C=C(Br)C(=O)OC2=O)c(OC)c1`, the IC50 [7] was 3.8 µM (active) and the IC50 [8] was 11.4 µM (inactive).

In the case of `CC(C)(C)OC(=O)NCCOCCOCCOc1ccc(N(C(=O)CCl)C(C(=O)NCCc2ccccc2)c2cccs2)cc1Cl` (stereo not given), the AC50 [9] was 0.177 µM (active), the AC50 [10] was 0.156 µM (active) and the AC50 [11] was 1.79 µM (active). For the same compound, the AC50 [12] was 0.738 µM (active), the AC50 [13] was 0.126 µM (active) and the AC50 [14] was 1.45 µM (active). The AC50 [15] was 0.643 µM (active), the AC50 [16] was 21.2 µM (active) and the AC50 [17] was 0.675 µM (active). The AC50 [18] was 0.492 µM (active) and the AC50 [19] was 21.4 µM (active).

For `CCOc1ccc(C(=O)C2=C(O)C(=O)N(CC3CCCO3)C2c2ccco2)cc1` (stereo not given), the Ki [20] was 32 µM (inactive).
